Measurements from patent US20250041313A1, “COMBINATION THERAPY FOR TREATMENT OF CANCER” (CITY OF HOPE, priority 2023, published 2025).

How the values were obtained:
[1] = cited from earlier work
H446 spheroids = test: Spheroid LDH cytotoxicity/death assay; assay type: cell-based, human; details: 72 h
Method: (§1) SBC3 and H446 cells were plated at a density of 10,000 cells per well in 96-well ULA round-bottomed plates (S-Bio, Hudson, NH) and incubated for 72 h at 37° C., 5% CO2, and 95% humidity. Spheroids were transferred to low cell attachment dishes, grown for two days, and treated with drug. After treatment, spheroid samples were run with Western blot assay. For spheroid mitochondria visualization, they were stained with 250 nM MitoTracker® Red CMXRos and Hoechst from ThermoFisher Scientific (Waltham, MA) for 2 h after drug treatment. Spheroids were washed, fixated with 4% PFA, transferred into 96-well flat glass-bottom black microplate (Cellvis, Mountain View, CA), and mounted in wells.
LDH activity was measured using LDH Cytotoxicity Assay Kit following the manufacturer protocol (Thermo Fisher Scientific, Waltham, MA). Briefly, H446 and SBC3 spheroids after 72 hours of drug treatments were mixed with 10 μl 10× lysis buffer and incubated for 45 min in cell culture incubator. 50 μl of lysed cells from each sample were used to measure absorbance by plate reader (Tecan Spark 10, Salzburg, Austria). Percentage of cell cytotoxicity/death was calculated by using the following formula: […]

SBC3 spheroids = test: Immunoblotting of spheroid lysates; assay type: cell-based, human
Method: (§2) SCLC total cell lysates were prepared using RIPA (radioimmunoprecipitation assay lysis buffer) lysis buffer. Protein concentration was determined using DC Protein Assay Kit Bio-Rad (Hercules, CA). Samples were then run on SDS-PAGE in 4-15% polyacrylamide gels and transferred onto Immobilon membranes (Millipore, MO), blocked, incubated with specific primary antibodies at 4° C. overnight, and subsequently developed with secondary antibodies. The following primary antibody were used: pan-Actin, Phospho-DRP1 (Ser^616), Phospho-DRP1 (Ser^637), Histone H2B (V^119), Phospho-Histone H2A.X (Ser^139), Phospho-P53 (Ser^15), P-53, Cleaved PARP (Asp^214) (D64E10), Phospho-Chk1 (Ser^345) (133D3) and p21 were from Cell Signaling Technology (City of Industry, CA), β-Actin (Sigma-Aldrich, St. Luis, MO), Phospho RNA Polymerase II (S2) antibody (Bethyl Lab, Montgomery, TX), RNA Polymerase II CTD4H8 (BioLegend, San Diego, CA), DHODH (E-8), DRP1 (C-5), GAPDH (0411), c-Myc (9E10), Tom20 (F-10), FisI (B-5), OPA1 (D-9), antibodies from Santa Cruz Biotechnology (Dallas, TX) and MFN2 (Abcam, Boston, MA) and Chk1, MDM2, Cyclin CDK4 and D1, and E2F1 (Proteintech, Rosemont, IL).
as §1

SCLC = details: relapsed / second-line SCLC patients; cited from earlier work
SBC5 SCLC cell line = test: Immunoblotting of DRP1 phosphorylation; assay type: cell-based, human; details: SBC5 as printed
Method: as §2
Although mitochondrial areas of SBC5 cells were not affected with treatment, elongations of individual mitochondria were detected with each treatment.

[2] = system: pDRP1 (Ser616) in SBC3 cells; test: pDRP1 Ser616 immunofluorescence staining, QuPath; assay type: cell-based, human; details: SBC3, Teri overnight
Method: (§3) SBC3 and SBC5 cells were grown on glass coverslips and treated with Teri overnight. Next, cells were fixed in 4% paraformaldehyde, permeabilized, and blocked before incubating with pDRP1 (Ser^616) antibody followed by Alexa 488 secondary antibody. This was followed by staining with Tom20 (F-10) antibody. A far-red dye was used for cytoplasmic staining. Fluorescent images were acquired on an Axio Observer 7 inverted microscope (Carl Zeiss, Jena, Germany). Nuclei and DRP1 were stained with DAPI and Alexa 488 secondary antibody. All imaging was performed using a 40×/0.95 NA Plan-Apochromat objective with a final per pixel scaling of 0.147 by 0.147 microns. Within each 3×3 field of image view (>200 cells per image), QuPath 0.2.0M9 was used to detect cell nuclei, a cytoplasmic area around the nucleus was expanded for analysis, followed by limiting the area of that blind expansion based on the presence of the cytoplasmic dye. […] The mean pDRP1 signal intensity was then measured within that area. The green intensity sum of these areas was calculated per cell and then averaged for each sample image.
(§4) Additionally, SBC3 and SBC5 cells were stained with pDRP1 Ser^616 antibody (2° ab Alexa488), and the phosphorylation level was analyzed with QuPath 0.2.0M9 software.

[3] = system: pDRP1 (Ser616) in SBC5 cells; test: pDRP1 Ser616 immunofluorescence staining, QuPath; assay type: cell-based, human; details: SBC5, Teri overnight
Method: as §3, §4

## Cc1oncc1C(=O)Nc1ccc(C(F)(F)F)cc1 [Leflunomide, leflunomide]
[1]; up to 40 mg/day, patients with Wegner's granulomatosis
  safety profile: safety profile like the 20 mg/day dose
[1]; without a loading dose, estimated, FDA label
  time to attain steady state concentrations: two

## COc1ccc2[nH]c3c(c2c1)CCN[C@]31CS[C@@H]2c3c(OC(C)=O)c(C)c4c(c3[C@H](COC1=O)N1[C@@H]2[C@H]2c3c(cc(C)c(OC)c3O)C[C@@H]([C@@H]1O)N2C)OCO4 [Lurbinectedin, lurbinectedin]
H446 spheroids
  percentage of dead cells: significantly increased
SBC3 spheroids
  p21 level: upregulated
SCLC
  ORR: 32.7%
  median PFS: 3.5 months

## C/C(O)=C(\C#N)C(=O)Nc1ccc(C(F)(F)F)cc1 [Teriflunomide, teriflunomide]
SBC5 SCLC cell line
  DRP1 expression level: unaffected
  DRP1 phosphorylation at Ser616, and Ser637: significantly inhibits
[2]
  pDRP1 Ser616 green IF signal intensity: significant signal intensity decreased
[3]
  pDRP1 Ser616 green IF signal intensity: significant signal intensity decreased
